# In US9096550B2, “Bryostatin analogues and methods of making and using thereof” (UNIVERSITY OF UTAH RESEARCH FOUNDATION, priority 2008, dated 2015):
# Like-named read-outs stand apart in the source and are kept apart here.
# Experiments:
# Assay type in all cases: cell-based, human
# LNCaP cells [1] = assay: Proliferation of LNCaP cells (Incucyte confluency); conditions: for effect on LNCaP cell growth: compound alone, confluency at 80 hrs
# Experimental: (§1) FIGS. 12A-D show the effect of different compounds on the proliferation and apoptosis of LNCaP cells. […] Time-elapsed images were taken with an Incucyte imaging system every hour for 4 days. The proliferation of LNCaP cells is presented as increase in confluency (read by the instrument) at 80 hrs. Data represent the means+SEM of three independent experiments. […] Apoptosis was measured 2 days after treatment by flow cytometry using 7-AAD and Yo-Pro-1 as described in Materials and Methods. Data represent the means+SEM of three independent experiments.
# (§2) FIGS. 13A and 13B show the proliferation and morphology of LNCaP cells detected by Incucyte. LNCaP cells were treated with DMSO as control, 300 nM PMA, 1000 nM bryostatin 1 or the bryologue MERLE 21, or with 300 nM PMA in combination with 1000 nM bryostatin 1 or the bryologue MERLE 21. Time-elapsed images were taken by the Incucyte imaging system every hour. […] The arrow indicates the time of treatment. Data are representative of three independent experiments.
# The extent of confluency of LNCaP cells (from ATCC, Manassas, Va.) and the morphological changes after treatment were followed in real time using Incucyte (Essen Instruments, Ann Arbor, Mich.). Images of LNCaP cells plated into 24 well plates were taken every 1 hour by the instrument before and after treatment for a total of 4 days. The confluency of the cells was calculated by the instrument's program. The proliferation of LNCaP cells was expressed as the difference in cell confluency before and after treatment.
# LNCaP cells [2] = assay: Apoptosis of LNCaP cells (Yo-Pro-1/7-AAD flow cytometry); conditions: 48 hr; for induction of apoptosis in LNCaP cells: compound alone
# Experimental: as §1
# (§3) LNCaP cells treated for 48 hours with the different drugs or with DMSO as control were washed and re-suspended in phosphate buffered saline. Yo-Pro-1 (Invitrogen, Carlsbad, Calif.) was added to a final concentration of 1 μM and the cells were incubated for 20 min at 4° C. in the dark. 7-Aminoactinomycin D (7-AAD) (Invitrogen, Carlsbad, Calif.) was then added at a 5 μg/mL final concentration 10 minutes before analysis by flow cytometry using the FACSCalibur system (Becton Dickinson, Mountain View, Calif.). Data were analyzed with FlowJo 7 (Tree Star Inc., Ashland, Oreg.). The Yo-Pro-1 positive cells were considered apoptotic and were expressed as % of total cells. Western blot analysis of treated LNCaP cell lysates was performed as described previously using rabbit anti-cFos, rabbit anti-PKC delta, rabbit anti-phospho-tyrosine 311 of PKC delta or rabbit anti-β-actin antibodies.
# PKC delta = assay: Phosphorylation of PKC delta at Y311 in LNCaP cells (western blot)
# Experimental: FIGS. 14A-C show the induction of cFos and phosphorylation of PKC at Y311 in LNCaP cells. […] The proteins from the lysates were separated by 10% SDS-PAGE, electroblotted to nitrocellulose membranes and probed with anti-cFos primary and anti-rabbit secondary antibodies, followed by ECL visualization. Data are representative of four independent experiments. […] The cFos signal was normalized to the β-actin signal to correct for loading and the response induced by 100 nM PMA at 2 hrs was taken as 100%. Data represent the means+SEM of four independent experiments. […] Data represent the means+SEM of three independent experiments.
# as §3, with “Western blot analysis of treated LNCaP cell lysates was performed as described previously using rabbit anti-cFos, rabbit anti-PKC delta, rabbit anti-phospho-tyrosine 311 of PKC delta or rabbit anti-β-actin antibodies.” left out
# LNCaP cells [3] = assay: Early morphology change (cell flattening) of LNCaP cells by Incucyte imaging
# Experimental: as §2
# The extent of confluency of LNCaP cells (from ATCC, Manassas, Va.) and the morphological changes after treatment were followed in real time using Incucyte (Essen Instruments, Ann Arbor, Mich.). […] The confluency of the cells was calculated by the instrument's program. The proliferation of LNCaP cells was expressed as the difference in cell confluency before and after treatment.
# The above measurements were determined at fixed times after compound addition, 80 hr for proliferation and 48 hr for apoptosis. Cell growth was monitored continuously using an Incucyte live cell imaging system. […] At early times (0-6 hrs after treatment), the imaging also detected a transient response, reflecting a change in cell morphology induced by the compounds, superimposed on the slower change in the signal reflecting proliferation. […]
Compound,"block of the PMA inhibition of LNCaP cell growth (LNCaP cells [1]; 300 nM PMA combined with 1000 nM compound, 80 hrs)",effect on LNCaP cell growth (LNCaP cells [1]),block of induction of apoptosis by PMA in LNCaP cells (LNCaP cells [2]; 300 nM PMA in combination with 1000 nM compound),induction of apoptosis in LNCaP cells (LNCaP cells [2]),phosphorylation of PKC delta at Y311 (PKC delta),"persistence of cell flattening (early morphological response) (LNCaP cells [3]; LNCaP cells, 0-9 hrs after treatment)",persistence of cell flattening (early morphological response) (LNCaP cells [3])
CCC/C=C/C=C/C(=O)O[C@H]1/C(=C/C(=O)OC)C[C@H]2C[C@H]([C@@H](C)O)OC(=O)C[C@H](O)C[C@@H]3C[C@H](OC(C)=O)C(C)(C)[C@](O)(C[C@@H]4C/C(=C/C(=O)OC)C[C@H](/C=C/C(C)(C)[C@]1(O)O2)O4)O3 [bryostatin 1],blocked the inhibition of LNCaP cell growth by PMA,little effect,largely blocked the induction of apoptosis by PMA,little effect,only very weak phosphorylation,had reversed by 6 hrs after treatment,
CCCCCCCCCCCCCC(=O)O[C@@H]1[C@@H](C)[C@@]2(O)[C@@H](C=C(CO)C[C@]3(O)C(=O)C(C)=C[C@@H]23)[C@@H]2C(C)(C)[C@]12OC(C)=O [PMA],,marked inhibition of cell proliferation,,induced apoptosis,rapid phosphorylation,,still evident at 6 hrs but reversing by 9 hrs
